{"source": "patent US9562899B2", "about": "“Method of detecting OXA-048 carbapenemase producing bacteria” (BIOMÉRIEUX, priority 2012, dated 2017)", "key": {"[1]": {"tested_on": "strains with impermeability-mediated resistance (IR)", "type": "cell-based, Enterobacteriaceae", "conditions": "Ex 2, MIC in mg/l", "description": "Optimization of the Detection Specificity by Introducing Specific Inhibitors Inhibition of Class B Strains (NDM, VIM, IMP) by Adding EDTA\nIdentical to that used to determine the temocillin MICs by agar dilution (example 1).\nFor each temocillin concentration, the following concentrations of active EDTA will be tested in the form of disodium EDTA: 0, 1.77, 2.12, 2.47 and 2.83 mmol/l.\nMethod: identical to the method used in example 1."}, "VIM strains": {"tested_on": "VIM strains", "assay": "Temocillin MIC, agar dilution (Example 1)", "type": "cell-based, Enterobacteriaceae", "conditions": "Ex 1; temocillin alone; MIC in mg/l", "method": "(§1) Determination of the MICs with Respect to Temocillin for a Panel of CPE Strains (Using the Agar Dilution Method)\n(§2) Reaction medium: the base is a chromLD™ CPS medium (bioMérieux, ref. 43821-43829), comprising a chromogenic substrate for beta-glucuronidase, a chromogenic substrate for beta-glucosidase, a chromogenic substrate for beta-galactosidase and a substrate for deaminase. Temocillin is added to this base medium at the concentrations indicated hereinafter.\n(§3) Temocillin range tested: 50-150-200-300 mg/l (disodium temocillin, Eumedica SA, Manage, Belgium).\n(§4) The media are inoculated by depositing a spot: 1 μl of a microbial suspension in physiological saline at 0.5 McF, diluted to 1/10.\n(§5) Incubation for 24 h at 37° C.\n(§6) Reading after incubation for 24 hours. The medium with the smallest temocillin concentration on which a negative growth spot is obtained will be retained as the MIC. The spots having only 3 colonies or less or a total absence of growth were considered to be negative."}, "Non-OXA-48 strains": {"tested_on": "Non-OXA-48 strains", "assay": "Temocillin MIC, agar dilution (Example 1)", "type": "cell-based, Enterobacteriaceae", "method": "as §1, §2, §3, §4, §5, §6"}, "NDM-1 strains": {"tested_on": "NDM-1 strains", "assay": "Temocillin MIC, agar dilution (Example 1)", "type": "cell-based, Enterobacteriaceae", "conditions": "Ex 1; temocillin alone; MIC in mg/l", "method": "as §1, §2, §3, §4, §5, §6"}, "OXA-48 strains": {"tested_on": "OXA-48 strains", "assay": "Temocillin MIC, agar dilution (Example 1)", "type": "cell-based, Enterobacteriaceae", "method": "as §1, §2, §3, §4, §5, §6"}, "[2]": {"tested_on": "strains with impermeability-mediated resistance to carbapenems (IR)", "assay": "Temocillin MIC, agar dilution (Example 1)", "type": "cell-based, Enterobacteriaceae", "conditions": "Ex 1; temocillin alone; MIC in mg/l", "method": "as §1, §2, §3, §4, §5, §6"}, "IMP strains": {"tested_on": "IMP strains", "assay": "Temocillin MIC, agar dilution (Example 1)", "type": "cell-based, Enterobacteriaceae", "conditions": "Ex 1; temocillin alone; MIC in mg/l", "method": "as §1, §2, §3, §4, §5, §6"}, "KPC strains": {"tested_on": "KPC strains", "assay": "Temocillin MIC, agar dilution (Example 1)", "type": "cell-based, Enterobacteriaceae", "conditions": "Ex 1; temocillin alone; MIC in mg/l", "method": "as §1, §2, §3, §4, §5, §6"}, "[3]": {"tested_on": "KPC, AmpC and MBL strains", "conditions": "disk comprising 30 μg of temocillin; Rosco; cited from earlier work"}, "[4]": {"conditions": "Ex 1, temocillin alone, MIC in mg/l"}}, "note": "Where two headings read alike, the source gives them in different places.", "data": [{"smiles": "CO[C@@]1(NC(=O)C(C(=O)O)c2ccsc2)C(=O)N2[C@@H](C(=O)O)C(C)(C)S[C@@H]21", "note": "(some centres unmarked) [temocillin]", "values": [{"measurement": "No. of IR strains with MIC >300", "setting": "[1]; 0 mmol/l of EDTA", "value": 0}, {"measurement": "No. of IR strains with MIC ≦50", "setting": "[1]; 0 mmol/l of EDTA", "value": 8}, {"measurement": "No. of IR strains with MIC 150", "setting": "[1]; 1.77 mmol/l of active EDTA", "value": 4}, {"measurement": "No. of IR strains with MIC 200", "setting": "[1]; 1.77 mmol/l of active EDTA", "value": 1}, {"measurement": "No. of IR strains with MIC 300", "setting": "[1]; 1.77 mmol/l of active EDTA", "value": 1}, {"measurement": "No. of IR strains with MIC >300", "setting": "[1]; 1.77 mmol/l of active EDTA", "value": 0}, {"measurement": "No. of IR strains with MIC ≦50", "setting": "[1]; 1.77 mmol/l of active EDTA", "value": 4}, {"measurement": "No. of IR strains with MIC 150", "setting": "[1]; 2.12 mmol/l of active EDTA", "value": 3}, {"measurement": "No. of IR strains with MIC 200", "setting": "[1]; 2.12 mmol/l of active EDTA", "value": 2}, {"measurement": "No. of IR strains with MIC 300", "setting": "[1]; 2.12 mmol/l of active EDTA", "value": 1}, {"measurement": "No. of IR strains with MIC >300", "setting": "[1]; 2.12 mmol/l of active EDTA", "value": 0}, {"measurement": "No. of IR strains with MIC ≦50", "setting": "[1]; 2.12 mmol/l of active EDTA", "value": 4}, {"measurement": "No. of IR strains with MIC 150", "setting": "[1]; 2.47 mmol/l of active EDTA", "value": 2}, {"measurement": "No. of IR strains with MIC 200", "setting": "[1]; 2.47 mmol/l of active EDTA", "value": 2}, {"measurement": "No. of IR strains with MIC 300", "setting": "[1]; 2.47 mmol/l of active EDTA", "value": 0}, {"measurement": "No. of IR strains with MIC >300", "setting": "[1]; 2.47 mmol/l of active EDTA", "value": 0}, {"measurement": "No. of IR strains with MIC ≦50", "setting": "[1]; 2.47 mmol/l of active EDTA", "value": 6}, {"measurement": "No. of IR strains with MIC 150", "setting": "[1]; 2.83 mmol/l of active EDTA", "value": 3}, {"measurement": "No. of IR strains with MIC 200", "setting": "[1]; 2.83 mmol/l of active EDTA", "value": 1}, {"measurement": "No. of IR strains with MIC 300", "setting": "[1]; 2.83 mmol/l of active EDTA", "value": 0}, {"measurement": "No. of IR strains with MIC >300", "setting": "[1]; 2.83 mmol/l of active EDTA", "value": 0}, {"measurement": "No. of IR strains with MIC ≦50", "setting": "[1]; 2.83 mmol/l of active EDTA", "value": 6}, {"measurement": "No. of VIM strains with MIC 150", "setting": "VIM strains", "value": 5}, {"measurement": "No. of VIM strains with MIC 200", "setting": "VIM strains", "value": 1}, {"measurement": "No. of VIM strains with MIC 300", "setting": "VIM strains", "value": 0}, {"measurement": "No. of VIM strains with MIC >300", "setting": "VIM strains", "value": 1}, {"measurement": "No. of VIM strains with MIC ≦50", "setting": "VIM strains", "value": 9}, {"measurement": "MIC", "setting": "Non-OXA-48 strains; most of the non-OXA-48 strains", "value": "≤ 200", "unit": "µg/mL"}, {"measurement": "MIC", "setting": "Non-OXA-48 strains; only a few non-OXA-48 strains", "value": "> 300", "unit": "µg/mL"}, {"measurement": "No. of NDM-1 strains with MIC 150", "setting": "NDM-1 strains", "value": 1}, {"measurement": "No. of NDM-1 strains with MIC 200", "setting": "NDM-1 strains", "value": 0}, {"measurement": "No. of NDM-1 strains with MIC 300", "setting": "NDM-1 strains", "value": 0}, {"measurement": "No. of NDM-1 strains with MIC >300", "setting": "NDM-1 strains", "value": 0}, {"measurement": "No. of NDM-1 strains with MIC ≦50", "setting": "NDM-1 strains", "value": 25}, {"measurement": "MIC", "setting": "OXA-48 strains", "value": "> 300", "unit": "µg/mL"}, {"measurement": "No. of OXA-48 strains with MIC 150", "setting": "OXA-48 strains; [4]", "value": 0}, {"measurement": "No. of OXA-48 strains with MIC 200", "setting": "OXA-48 strains; [4]", "value": 0}, {"measurement": "No. of OXA-48 strains with MIC 300", "setting": "OXA-48 strains; [4]", "value": 0}, {"measurement": "No. of OXA-48 strains with MIC >300", "setting": "OXA-48 strains; [4]", "value": 15}, {"measurement": "No. of OXA-48 strains with MIC ≦50", "setting": "OXA-48 strains; [4]", "value": 1}, {"measurement": "No. of IR strains with MIC 150", "setting": "[2]", "value": 2}, {"measurement": "No. of IR strains with MIC 200", "setting": "[2]", "value": 0}, {"measurement": "No. of IR strains with MIC 300", "setting": "[2]", "value": 0}, {"measurement": "No. of IR strains with MIC >300", "setting": "[2]", "value": 0}, {"measurement": "No. of IR strains with MIC ≦50", "setting": "[2]", "value": 8}, {"measurement": "No. of IMP strains with MIC 150", "setting": "IMP strains", "value": 0}, {"measurement": "No. of IMP strains with MIC 200", "setting": "IMP strains", "value": 0}, {"measurement": "No. of IMP strains with MIC 300", "setting": "IMP strains", "value": 0}, {"measurement": "No. of IMP strains with MIC >300", "setting": "IMP strains", "value": 1}, {"measurement": "No. of IMP strains with MIC ≦50", "setting": "IMP strains", "value": 12}, {"measurement": "No. of KPC strains with MIC 150", "setting": "KPC strains", "value": 1}, {"measurement": "No. of KPC strains with MIC 200", "setting": "KPC strains", "value": 0}, {"measurement": "No. of KPC strains with MIC 300", "setting": "KPC strains", "value": 0}, {"measurement": "No. of KPC strains with MIC >300", "setting": "KPC strains", "value": 3}, {"measurement": "No. of KPC strains with MIC ≦50", "setting": "KPC strains", "value": 8}, {"measurement": "inhibition of strains by temocillin disk", "setting": "[3]", "value": "does not inhibit all KPC, AmpC and MBL strains"}]}]}
